Assay results published in patent US9782379B2, “Use of protectin DX for the stimulation of muscular IL-6 secretion” (Universite Laval, priority 2013, dated 2017).

Assays:
C2C12 myotubes = assay: IL-6 expression and release and AMPK phosphorylation in cultured C2C12 myotubes; assay type: cell-based; conditions: 100 nM of each lipid mediator vs vehicle
Method: C2C12 myoblasts were maintained in DMEM containing 10% FBS. Differentiation to myotubes was initiated by addition of DMEM containing 2% horse serum. The experiment was conducted 5 days after the addition of the differentiation media. Immediately prior to the commencement of experiments fresh media was added to the cells. Then vehicle or PDX (10, 100, and 1000 nM) was added to the appropriate wells. 30 and 120 minutes after the addition of PDX media was collected and frozen for IL-6 quantification and cells were washed in ice cold PBS. For extraction of mRNA cells were then lysed and scraped in 300 μl of RLT buffer (QIAGEN). For examination of AMPK activity cells were lysed and scraped in 200 μl of ice cold lysis buffer containing 50 mM HEPES pH7.5, 150 mM NaCl, 1 mM EGTA, 20 mM b-glycerophosphate, 1% NP40, 10 mM NaF, 2 mM Na3VO4, 1× protease inhibitor cocktail (Sigma).
Snap frozen gastrocnemius muscle and liver from mice were pulverized in liquid nitrogen then lysed overnight at 4° C. in the lysis buffer described for the C2C12 myotube experiments. Immunoblotting of myotube, macrophage, liver and muscle lysates was then performed as previously described^5. Briefly, 50 ug of protein was loaded onto a 7.5% acrylamide gel, subjected to SDS-PAGE then transferred onto nitrocellulose membranes. Membranes were then blocked and probed with the appropriate antibodies. Antibodies for p-Akt ser473, p-JNK thr183/tyr185, JNK, p-AMPK thr172, AMPK, p-STAT-3 ser727 and STAT-3 were obtained from Cell Signaling Technology (MA, USA). Antibodies for total Akt and iNOS were from Santa Cruz Biotechnology (CA, USA) and BD Transduction Laboratories™ (Canada) respectively.
RNA was extracted from C2C12 myotubes using an RNeasy® mini kit from QIAGEN. RNA from homogenized liver tissue was extracted using an RNeasy® fibrous tissue mini kit from QIAGEN. RNA was then reverse transcribed to cDNA using the high-capacity cDNA reverse transcription kit from applied biosystems. Real-time PCR for Ppargc1, Pck1, G6Pc, and GAPDH was then performed using Taqman assay on demand probes and primers from Applied Biosystems in a CFX96 real-time system from BIO-RAD. The relative expression of genes of interest was then determined by normalization to the housekeeping gene GAPDH using the comparative CT method for relative gene expression^30.
Chemokines and cytokines were quantified in macrophage media, or mouse plasma using the MILLIPLEX™ MAP mouse cytokine/chemokine kit (Millipore Corporation, MA, USA). Nitrite accumulation in media was determined by Greiss assay as previously described^25. Plasma insulin levels were assessed by RIA (Linco, MI, USA). FFA were measured using an enzymatic colorimetric assay (Wako Chemicals, VA, USA). Skeletal muscle and liver IL-6 were quantified using the mouse IL-6 ELISA kit from R&D systems. Total plasma adiponectin was determined using the ELISA from ALPCO.

T37i brown adipocytes = assay: IL-6 release from cultured brown adipocytes; assay type: cell-based; conditions: norepinephrine 1 μM as adrenergic stimulus
Source text: Since brown adipose tissue was recently shown to regulate glucose homeostasis via secretion of IL-6^20 we also examined whether PDX might raise circulating IL-6 by stimulating brown fat.

Row | SMILES | IL-6 release from muscle cells (C2C12 myotubes) | release of IL-6 (T37i brown adipocytes)
1 | CC/C=C\CC(O)/C=C/C=C\C=C\C=C\C(O)[C@@H](O)C/C=C\CCC(=O)O (stereo partly drawn) [RvD1, 7S,8R,17S-trihydroxy-4Z,9E,11E,13Z,15E,19Z-docosahexaenoic acid, reference compound] | not present | –
2 | CC/C=C\C[C@H](O)\C=C/C=C/C=C/[C@H](O)C/C=C\C/C=C\CCC(=O)O [PD1, 10R,17S-dihydroxy-docosa-4Z,7Z,11E,13E,15Z,19Z-hexaenoic acid, reference compound] | not present | –
3 | NC[C@H](O)c1ccc(O)c(O)c1 [norepinephrine, reference compound] | – | released IL-6
4 | CCCCCC(O)/C=C/C=C\C=C\[C@@H](O)C/C=C\CCCC(=O)O (stereo partly drawn) [8(S),17(S)DiHETE, 8S,15S-dihydroxy-5Z,9E,11Z,13E-eicosatetraenoic acid, reference compound] | not present | –
